Where a SMILES comes first, the peptide text is derived from it. [ ]: non-standard residue; d: D form. ξ: configuration not given here. ξW = NC(Cc1c[nH]c2ccccc12)C(=O)O
Row | Compound | logP
1 | CCCCN1CCCC1CNC(=O)c1cc(S(N)(=O)=O)cc2c1OC(C)C2 (stereo not given) | 2.8
2 | CCOC(=O)C(CCc1ccccc1)NC(C)C(=O)N1N=C(C(C)(C)C)SC1C(=O)O (stereo not given) | 1.62
3 | CCCC(=NOCC)C1=C(O)CC2(CC(C)CC(C)C2)OC1=O (stereo not given) | 4.47
4 | CCCN(C)CC(=O)Nc1c(C)cccc1C | 2.28
5 | CCOc1cccc(COC(=O)C2C(C=C(C)C)C2(C)C)c1 (stereo not given) | 5.87
6 | COC(=O)c1c(Oc2nc(OC)cc(OC)n2)cccc1C(C)=NOCC=C(Cl)Cl | 4.23
7 | CC(C)(C)NC(=O)[C@@H]1C[C@@H]2CCCC[C@@H]2CN1C[C@@H](O)[C@H](Cc1ccccc1)NC(=O)[C@H](CC(N)=O)NC(=O)c1ccc2ccccc2n1 | 4.7
8 | CCCOCCCNc1[nH]cnc2ncnc1-2 | 1.74
9 | CC(C)(C)[N+]([O-])=Cc1ccccc1O | 1.3
10 | Clc1ccc(C2(Cn3cncn3)OCC3(CCC4OC4C3)CO2)c(Cl)c1 (stereo not given) | 1.87
11 | NC(Cc1ccc(Cl)cc1)C(=O)O (stereo not given) | -0.47
12 | CCN(C(C)=O)c1cccc(-c2ccnc3c(C#N)cnn23)c1 | 1.23
13 | CC(C)CC(NC(=O)C1CCCN1)C(=O)O (stereo not drawn) (H-Pro-Leu-OH; configuration not given here) | -2.41
14 | COc1ccc(CCNCC(O)COc2ccc(CCc3nc(Br)c[nH]3)cc2)cc1OC (stereo not given) | 3
15 | O=C1c2ccc(O)cc2OCN1CCO[N+](=O)[O-] | 1.63
16 | CCOC(=O)CCCn1ccnc1[N+](=O)[O-] | 0.69
17 | Clc1cc(-c2ccc(Cl)c(Cl)c2Cl)cc(Cl)c1Cl | 7.6
18 | CC(C)CC(NC(=O)CN)C(=O)NC(CC(C)C)C(=O)NCC(=O)NC(Cc1ccccc1)C(=O)O (stereo not given) (H-GLLGF-OH; configuration not given here) | -0.18
19 | Cc1cc2c(ccc3cc(C)c(=O)oc32)o1 | 2.97
20 | O=C(O)CCCCCON=C(c1cccc(C(F)(F)F)c1)c1cnccn1 | 3.52
21 | Clc1cccc(N2CCN(CCn3nnc4ccccc43)CC2)c1 | 3.45
22 | CSCCC(NC(=O)C(Cc1ccccc1)NC(=O)CNC(=O)CNC(=O)C(N)Cc1ccc(O)cc1)C(=O)O (stereo not given) | -1.39
23 | CCC(C)C(N)C(=O)NC(Cc1ccc(O)cc1)C(=O)NC(C(=O)NC(C(=O)O)C(C)C)C(C)CC (stereo not given) (H-IYIV-OH; configuration not given here) | -1.09
24 | NC(Cc1ccccc1)C(=O)NC(Cc1ccccc1)C(=O)O (stereo not drawn) (H-Phe-Phe-OH; configuration not given here) | -0.85

Row | Compound | logP
25 | CC(C)CNc1ccncc1S(=O)(=O)NC(=NC#N)NC(C)C | 0.88
26 | CC(C)CC(=O)OCC(=O)C1(O)C(C)CC2C3CCC4=CC(=O)C=CC4(C)C3(F)C(O)CC21C (stereo not given) | 3.8
27 | O=C1C=C(N2CCCCC2)C(=O)N1c1ccc(F)cc1 | 2.6
28 | S=C=NC(c1ccccc1)c1ccccc1 | 5.09
29 | N=C(N)Nc1nc(-c2ccc(N)cc2)cs1 | 1.08
30 | Nc1nnnn1-c1cc(Cl)ccc1Cl | 1.61
31 | O=C1c2c(O)cccc2C(=CNc2ccccc2)c2cccc(O)c21 | 4.96
32 | O=[N+]([O-])c1nccn1CC(O)C(O)CF (stereo not given) | -0.77
33 | CCOc1cccc(CNc2[nH]cnc3ncnc2-3)c1 | 2.57
34 | CC(C)(O)C1CCC2(C)CCC3(CO3)C2C1 (stereo not given) | 2.9
35 | CCOc1ccc(CNc2[nH]cnc3ncnc2-3)cc1 | 2.6
36 | Cc1nc2c3c(c(C(=O)N4CCCC4)cn2c1C)CCC(c1ccccc1)O3 (stereo not given) | 3.6
37 | Clc1cc(Cl)c2c(oc3c(Cl)ccc(Cl)c32)c1Cl | 6.34
38 | CCCCCN(C)CC(=O)Nc1c(C)cccc1C | 3.2
39 | CCNC(=NC#N)NS(=O)(=O)c1cnccc1NC1CCCCC1 | 0.94
40 | CC(Nc1ccc([N+](=O)[O-])cc1[N+](=O)[O-])C(=O)O (stereo not given) | 2.09
41 | CCCCNC1CCc2c(OC)cccc2C1C (stereo not given) | 3.73
42 | C=CCNC(=O)c1[nH]cc(-c2ccc(Cl)cc2)c1N1CCOCC1 | 3.7
43 | Cc1cc(C(=O)O)ccc1[N+](=O)[O-] | 2.42
44 | CC1(C(Cl)Cl)C2C(Cl)C(Cl)C1(C(Cl)Cl)C(Cl)C2Cl (stereo not given) | 5.52
45 | O=c1nc(N=CN2CCCCC2)ccn1C1CC(O)C(CO)O1 (stereo not given) | -0.51
46 | CCCc1nc(NCC)nc(N2CCOCC2)n1 | 2.23
47 | OC(CNCCc1ccccc1)CON=C(C1CC1)C1CC1 (stereo not given) | 2.44
48 | CCCOc1ccc(CNc2[nH]cnc3ncnc2-3)cc1 | 3.15

Row | Compound | logP
49 | CC(=O)OC(C)(C)C1CCC2(C)CCCC(CO)C2C1 (stereo not given) | 3.49
50 | Cc1ccccc1Cc1c[nH]cn1 | 2.31
51 | O=C(O)CCCCCON=C(c1cccc(C(F)(F)F)c1)c1cccnn1 | 3.22
52 | CCCCOc1ccccc1NC(=O)OCCN1CCCCC1 | 4.79
53 | CC(C)NC(=NC#N)NS(=O)(=O)c1cnccc1Nc1cccc(F)c1 | 1.59
54 | CCCOc1cccc(-c2c[nH]c(SCCc3c[nH]cn3)n2)c1 | 3.7
55 | Cc1cccc(C)c1CCN | 2.38
56 | COc1cc(OC)c(C=[N+]([O-])C(C)(C)C)c(OC)c1 | 1.2
57 | CSc1ncc([N+](=O)[O-])n1C | 0.94
58 | CN1CC(O)N(C(=O)Nc2ccccc2)C1=O (stereo not given) | 1.44
59 | CCCCN(C)CC(=O)Nc1c(C)cccc1C | 2.74
60 | Cc1cn(C2C=CC(COP3(=O)OCc4cc([N+](=O)[O-])ccc4O3)O2)c(=O)[nH]c1=O (stereo not given) | 0.18
61 | CCC(=O)Nc1ccc(OCC(O)CNC(C)C)cc1 (stereo not given) | 1.02
62 | Cc1cccc(N2CC(N3CCOCC3)=CC2=O)c1 | 1.5
63 | COC(=O)C(C)=CC1C(C(=O)OCc2cccc(C#N)c2)C1(C)C (stereo not given) | 3.83
64 | OCC1OC(Oc2ccc(-c3ccccc3)cc2)C(O)C(O)C1O (stereo not given) | 1.79
65 | CC(=O)c1ccc(Br)cc1O | 3.15
66 | CC(=O)OCC1OC(n2ccc(=O)[nH]c2=O)C(OC(C)=O)C1OC(C)=O (stereo not given) | -0.36
67 | CSCCC(N)C(=O)NC(CC(C)C)C(=O)NC(Cc1ccccc1)C(=O)O (stereo not given) | -1.03
68 | CC(C)(O)C1CCC2(C)CCCC(O)(CO)C2C1 (stereo not given) | 1.54
69 | CCOP(=O)(NC(C)CC)Oc1cc(C)ccc1[N+](=O)[O-] (stereo not given) | 2.73
70 | O=[N+]([O-])c1cn(Cc2ccccc2)cn1 | 1.36
71 | Clc1ccc(N2CCN(CCn3nc4ccccc4n3)CC2)cc1 | 4.05
72 | NC1=NCC(CN2CCN(c3ccc([N+](=O)[O-])cc3)CC2)O1 (stereo not given) | 1.23

Row | Compound | logP
73 | O=c1cc(-c2ccccc2)oc2ccc(Cl)cc12 | 3.92
74 | CNc1ncnc2c1ncn2C1OC(CO)C(O)C1O (stereo not given) | -0.52
75 | COc1ccc(-c2cn3cccnc3n2)c(OC)c1 | 1.94
76 | c1ccc(CSSc2ncc[nH]2)cc1 | 3.05
77 | NC(=O)C(CCN1CC2CCC(CC2)C1)(c1ccccc1)c1ccccn1 (stereo not given) | 2.72
78 | CCCc1nc(N2CCOCC2)nc(N(C)C(=O)c2ccccc2)n1 | 2.01
79 | CC(C)OC(=O)C1(S(=O)(=O)c2ccc(Cl)cc2)CCCCC1 | 3.49
80 | N#Cc1[nH]cc(-c2ccc(Cl)cc2)c1N1CCOCC1 | 3.5
81 | Cc1cc(CCCCCCCOc2ccc(C3=NCCO3)cc2)on1 | 4.79
82 | Oc1ccccc1CNc1ncnc2nc[nH]c12 | 2.05
83 | CCCCCCC(Nc1ccc([N+](=O)[O-])cc1[N+](=O)[O-])C(=O)O (stereo not given) | 4.2
84 | C[C@@H]1CN(c2c(F)c(N)c3c(=O)c(C(=O)O)cn(C4CC4)c3c2F)C[C@H](C)N1 | -0.02
85 | CC(C)CC(N)C(=O)NC(CC(C)C)C(=O)NC(CC(C)C)C(=O)NC(C(=O)O)C(C)C (stereo not given) (H-LLLV-OH; configuration not given here) | -0.51
86 | Cc1ccc2c(c1)C(=O)N(CCO[N+](=O)[O-])CO2 | 2.41
87 | NC(Cc1c[nH]c2ccccc12)C(=O)NCC(=O)NCC(=O)O (stereo not drawn) (H-[ξW]-Gly-Gly-OH) | -2.72
88 | O=c1ccc2cc3ccsc3cc2s1 | 2.96
89 | COc1ccc(C2Cc3c(cccc3C(F)(F)F)N(CCN(C)C)C(=O)C2OC(C)=O)cc1 (stereo not given) | 4.9
90 | CC(C)CC(NC(=O)C(NC(=O)C(CC(C)C)NC(=O)C(N)C(C)C)C(C)C)C(=O)O (stereo not given) (H-VLVL-OH; configuration not given here) | -1.23
91 | CNC1CCc2c(OC)cccc2C1C (stereo not given) | 2.42
92 | CCN(CC)CCCC(C)NC(=O)c1ccc([N+](=O)[O-])cc1[N+](=O)[O-] (stereo not given) | 1.73
93 | CC(C)(O)C1CCC2(C)CCCC(C)(O)C2C1 (stereo not given) | 3.04
94 | O=S(NC(=S)N1CCCCC1)c1cnccc1NC1CCCCC1 (stereo not given) | 3.75
95 | Cc1oc2nc3oc(=O)cc(C)c3cc2c1C | 2.25
96 | O=c1cc(CSc2ccccn2)occ1O | 1.14

Row | Compound | logP
97 | CCCN(CCCCC(NC(C)=O)C(=O)NCc1ccccc1)C(=O)N(CCCl)N=O (stereo not given) | 1.99
98 | C=CC(=O)OCCCCCC | 3.33
99 | CC(NC(=O)C(Cc1ccccc1)NC(=O)C(N)Cc1c[nH]c2ccccc12)C(=O)O (stereo not drawn) (H-Trp-Phe-Ala-OH; configuration not given here) | -1
100 | CCNc1nc(N)nc(OC)n1 | 0.89
101 | CC(C)CC(NC(=O)C(N)Cc1ccccc1)C(=O)O (stereo not drawn) (H-Phe-Leu-OH; configuration not given here) | -1.17
102 | CCNC(=S)SC | 1.57
103 | CC(C)(O)C1CCC2(C)CCCC(O)C2C1 (stereo not given) | 2.68
104 | COC1=C(Cl)C(=O)c2ccccc2C1=O | 2.15
105 | CC(C)CC(NC(=O)C(CC(C)C)NC(=O)C(N)CO)C(=O)O (stereo not drawn) (H-Ser-Leu-Leu-OH; configuration not given here) | -2.03
106 | O=C(NP(=O)(N1CC1)N1CC1)c1ccccc1 | 0.81
107 | CCc1cccc2nc(N)nc(N)c12 | 1.69
108 | CN1COCc2c1ccc1cc3ccc(N)c(CO)c3nc21 | 1.64
109 | Cc1c(C)c2occc2c2oc(=O)ccc12 | 2.84
110 | COc1ccc(C2=NC(C)(C(=O)O)CS2)c(O)c1 (stereo not given) | 1.7
111 | Cc1c(O)c(=O)ccn1CCCOC(=O)c1ccc(N(C)C)cc1 | 1.66
112 | CC(C)NC(=NC#N)NS(=O)(=O)c1cnccc1NC1CCCCC1 | 1.53
113 | O=C(CC1CCc2cc(Br)cc3[nH]c(=O)c(=O)n1c23)Nc1ccccc1 (stereo not given) | 2.78
114 | Nc1nnnn1-c1cccc([N+](=O)[O-])c1 | 0.67
115 | CC1CC(N)CN1c1cc2c(cc1F)c(=O)c(C(=O)O)cn2-c1ccc(F)cc1F (stereo not given) | 0.09
116 | CC1CCCCN1CC1CN=C(N)O1 (stereo not given) | 0.73
117 | O=c1cc(-c2ccc(Cl)cc2Cl)oc2ccccc12 | 4.13
118 | N#CC(C#N)=NNc1cccc(Cl)c1Cl | 3.85
119 | CC(C)CCC(=O)CC1c2ccccc2C(=O)N1c1ccc2ccc(Cl)nc2n1 (stereo not given) | 4.8
120 | Nc1cccc(Nc2ccccc2C(=O)O)c1 | 2.99
